As a reminder, the IC50 is the concentration that gives 50% inhibition. Lower therefore signals higher potency. The Kd is the concentration at which binding is half-saturated. A higher Kd goes with lower affinity.

Assay [1] has as its target T1, P5CDH (Δ1-pyrroline-5-carboxylate dehydrogenase) (Staphylococcus aureus, UniProt Q2FDV3).
T1 construct: gene rocA
T1 sequence (Q2FDV3 1-514): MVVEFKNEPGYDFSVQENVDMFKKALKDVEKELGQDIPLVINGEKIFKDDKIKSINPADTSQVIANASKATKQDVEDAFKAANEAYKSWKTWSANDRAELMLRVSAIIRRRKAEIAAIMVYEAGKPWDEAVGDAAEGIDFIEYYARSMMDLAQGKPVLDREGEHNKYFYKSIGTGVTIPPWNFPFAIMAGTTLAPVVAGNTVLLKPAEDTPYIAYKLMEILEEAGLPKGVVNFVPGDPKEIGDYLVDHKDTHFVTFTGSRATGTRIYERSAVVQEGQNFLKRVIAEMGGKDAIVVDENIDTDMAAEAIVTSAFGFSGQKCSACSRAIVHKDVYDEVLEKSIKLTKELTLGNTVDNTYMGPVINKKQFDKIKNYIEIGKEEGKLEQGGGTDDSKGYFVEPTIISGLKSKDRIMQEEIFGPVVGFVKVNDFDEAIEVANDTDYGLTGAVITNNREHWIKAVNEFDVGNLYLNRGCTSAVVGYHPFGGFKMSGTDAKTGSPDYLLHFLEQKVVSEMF
The experiment in a line: P5CDH activity kit (FT-M52211). Type of assay: biochemical.

Assay [2] has as its target T1, P5CDH (Δ1-pyrroline-5-carboxylate dehydrogenase). The experiment in a line: bio-layer interferometry (Octet NTA, immobilised P5CDH). The class given is binding. Background: BLI is a label-free optical method that tracks binding on a fibre tip over time.

Regarding `CC1=C(O)C(=O)C=C2C1=CC=C1[C@@]2(C)CC[C@@]2(C)[C@@H]3C[C@](C)(C(=O)O)CC[C@]3(C)CC[C@]12C` [celastrol], half-maximal inhibition in assay [1] (IC50) required 10.9 µM. The same compound had a Kd in assay [2] of 55 µM.

The values are drawn from PMC10477891, “Celastrol Combats Methicillin‐Resistant Staphylococcus aureus by Targeting Δ^1‐Pyrroline‐5‐Carboxylate Dehydrogenase” (Advanced Science, 2023).
